Laboratory results from PMC8269107, “Lipidation of Temporin-1CEb Derivatives as a Tool for Activity Improvement, Pros and Cons of the Approach” (International Journal of Molecular Sciences, 2021).
≈ marks a conversion by molar mass, not a printed value. Like-named read-outs stand apart in the source and are kept apart here. Where a SMILES comes first, the peptide text is derived from it. [ ]: non-standard residue; d: D form. The star is where a group is joined. Lauroyl = CCCCCCCCCCCC(=O)*; Pentanoyl = CCCCC(=O)*; AEEA = NCCOCCOCC(=O)O; βAla = NCCC(=O)O

Key:
[1] = Serum stability in 25% human serum (RP-UPLC); conditions: male, amount of the intact compound, after 5 h of incubation in 25% human serum, 37 °C
Experimental: At the beginning of the experiment, 25% human serum (human serum, from human male AB plasma, Sigma-Aldrich) was centrifuged at 12,000 rpm for 10 min in order to remove the excessive amount of lipids in the serum preparation, and the supernatant was collected and incubated at 37 °C for 15 min under shaking. The assay was initiated upon the addition of the peptide to the serum yielding a final peptide concentration of 75 µg/mL. The 50 µL aliquots of the incubated mixtures were taken at the following time intervals: 0, 30, 60, 120, 240 and 300 min. The aliquots were mixed with 50 µL of absolute ethanol, incubated on ice for 15 min to precipitate serum proteins and then centrifuged (12,000 rpm, 10 min). The supernatants were collected and lyophilized. Dry samples were further dissolved in 100 µL of HPLC-grade water and then analyzed. […]
RP-UPLC analysis was performed using Nexera system (Shimadzu Europe GmbH, Duisburg, Germany) with C12 Jupiter Proteo column (150 × 2 mm, 90Å, 4 micron) (Phenomenex, USA) applying a linear aqueous acetonitrile gradient 1–80%B in 20 min using solutions A (0.1% TFA in water) and B (0.1%TFA in 80% acetonitrile) with a flow rate 0.6 mL/min and detection at 220 nm. The quantity of the intact peptide at each time point was expressed as a percentage of the peak area with respect to time “zero” (100%).

S. aureus USA300 = format: cell-based, Staphylococcus aureus
Excerpt: (§1) Escherichia coli (PCM 2057 = ATCC 25922), Staphylococcus aureus (PCM 2054 = ATCC 25923), Staphylococcus epidermidis (PCM 2118 = ATCC 14990), Bacillus subtilis (PCM 2224 = ATCC 9799), Bacillus cereus (PCM 482 = ATCC 10702) and Pseudomonas aeruginosa (PCM 499 = ATCC 10145) were obtained from the Polish Collection of Microorganisms. Fungi strains Candida albicans (CCM 8186 = CNTC 49/64), Candida glabrata (CCM 8270 = ATCC 90030), Candida parapsilosis (CCM 8260 = ATCC 22019) and Candida krusei (CCM 8271 = ATCC 6258) were acquired from the Czech Collection of Microorganisms. S. aureus USA300 (wild type strain), the reference strain of Klebsiella pneumoniae (ATCC 13883) and clinical isolates of Pseudomonas aeruginosa (PA1, PA2) collected from nonrelated patients admitted to the Stefan Zeromski Specialist Municipal Hospital in Krakow (Poland) were kindly provided by the research group of the Department of Microbiology, Faculty of Biochemistry, Biophysics and Biotechnology, Jagiellonian University, Krakow, Poland.
(§2) Luria-Bertani broth (LB) and Sabouraud Dextrose broth (SB) (Biocorp, Poland) were used for cultivation of bacteria and fungi strains, respectively. The antimicrobial activity of the peptides were analyzed through determination of MIC (minimal inhibitory concentration) parameters according to Clinical and Laboratory Standards (CLSI) guidelines developed for aerobic bacteria and yeasts, respectively. Mueller-Hinton broth (MHB) was used as the working medium for all bacterial strains, while in the case of fungi, RPMI-1640 (with L-glutamine, without sodium bicarbonate) growth medium buffered with MOPS (morpholinepropanesulfonic acid) and supplemented with 2% glucose was used. Inoculum was prepared from freshly grown cultures of microorganisms at their exponential phase of growth. […] Plates were then incubated for 24 h at 37 °C in the case of bacteria and at 35 °C in the case of fungi. After that time, absorbance was read at 590 nm with a Perkin Elmer plate reader. Cultures without peptide were treated as positive control, while uninoculated media were defined as negative control. All measurements were run at least in triplicate.

S. aureus PCM 2054 = format: cell-based, Staphylococcus aureus; conditions: S. aureus PCM 2054, Mueller-Hinton broth + 1% human serum
Experimental: Additionally, we performed a comparative analysis of MICs obtained for the tested compounds against S. aureus PCM2054 in two types of growth medium, i.e., the standard MHB and MHB supplemented with 1% human serum and in the absence of 1% serum. The assay was performed as described in 4.3.1.

[2] = ITC, binding to zwitterionic membrane; conditions: 25 °C; for pKITC: POPC LUVs
Experimental: The ITC experiments were performed according to the previously reported protocol in PBS (pH 7.4) at 25 °C using an AutoITC isothermal titration calorimeter (MicroCal Inc., Northampton, USA) with a 1.4491-mL sample and reference cells filled with distilled water. In each experiment, 29 injections of 10.02 µL each (2 µL for the first only) of a liposome solution at a concentration of 1.31 mM were added into a 0.05 mM and/or 0.1 mM peptide solution. An initial 2-μL injection was discarded from each dataset in order to remove the effect of titrant diffusion across the syringe tip during the equilibration process. Each injection lasted 20 s. The titrant was injected at 4 min intervals to ensure that the titration peak returned to the baseline before the next injection. To ensure a homogeneous mixing in the cell, the stirrer speed was kept constant at 300 rpm.
A complete binding of the peptide to lipid vesicles provides the possibility for determination of the total binding enthalpy (∆H) as well as a binding constant (Ka), reflecting the affinity of the lipopeptide to liposomes, stoichiometry of binding (n), that is, the number of phospholipids per peptide, by fitting the titration result data to one set of sites’ model using Origin 7 from MicroCal. Changes in entropy (∆S) and the Gibbs free energy (∆G) were calculated from Equation (1), where factor 55.5 is the molar concentration of water, R is the gas constant (1.986 cal·mol^−1·K^−1) and T is the absolute temperature:∆G = -RTln(55.5Ka) = ∆H-T∆S(1)
The liposomes for ITC experiments were made of POPC or POPG lipids. The lipids were dissolved in a chloroform:methanol (2:1; v/v) mixture, evaporated under nitrogen and desiccated under vacuum overnight to remove any residual solvents. Afterwards, the dry lipid film was resuspended in a phosphate buffer solution and shaken for 2 h at room temperature (phase transition point, Tm = −2 °C) to obtain multilamellar vesicles (MLVs). […]

P. aeruginosa PA2 = format: cell-based, Pseudomonas aeruginosa
Excerpt: as §1, §2

P. aeruginosa PA1 = format: cell-based, Pseudomonas aeruginosa
Excerpt: as §1, §2

K.pneumoniae ATCC 13883 = format: cell-based, Klebsiella pneumoniae
Excerpt: as §1, §2

[3] = P. aeruginosa PA2 clinical isolate
[4] = P. aeruginosa PA1 clinical isolate

Compound | remaining at 5 h, 75 µg/mL [1] [%] | MIC100 (S. aureus USA300) [µg/mL] | MIC (S. aureus PCM 2054) [µg/mL] | pKITC [2] | MIC100 (P. aeruginosa PA2; [3]) [µg/mL] | MIC100 (P. aeruginosa PA1; [4]) [µg/mL] | MIC100 (K.pneumoniae ATCC 13883; K.pneumoniae ATCC 13883) [µg/mL] | binding constants (order of) ([2]; POPC vesicles) | MIC100 (P. aeruginosa PA2; PA2, 24 h) [µg/mL] | MIC100 (P. aeruginosa PA1; PA1, 24 h) [µg/mL] | MIC100 (K.pneumoniae ATCC 13883; ATCC 13883, 24 h) [µg/mL]
CCCCC(=O)NCCC(=O)N[C@@H](Cc1c[nH]cn1)C(=O)NCCOCCOCC(=O)N[C@H](C(=O)N[C@@H](CCCCN)C(=O)N[C@@H](CCCCN)C(=O)N[C@H](C(=O)N[C@@H](CC(C)C)C(=O)N[C@@H](CO)C(=O)N[C@@H](CCCCN)C(=O)N[C@H](C(=O)N[C@@H](CCCCN)C(=O)N[C@@H](CCCCN)C(=O)N[C@@H](CC(C)C)C(=O)N[C@@H](CC(C)C)C(N)=O)[C@@H](C)CC)[C@@H](C)CC)[C@@H](C)CC [C5-CAR-PEG-DK5] ({Pentanoyl-βAla}-H[AEEA]IKKILSKIKKLL-NH2) | 77 | – | – | – | – | – | – | – | – | – | –
CCCCCCCCCCCC(=O)N[C@H](C(=O)N[C@@H](CCCCN)C(=O)N[C@@H](CCCCN)C(=O)N[C@H](C(=O)N[C@@H](CC(C)C)C(=O)N[C@@H](CO)C(=O)N[C@@H](CCCCN)C(=O)N[C@H](C(=O)N[C@@H](CCCCN)C(=O)N[C@@H](CCCCN)C(=O)N[C@@H](CC(C)C)C(=O)N[C@@H](CC(C)C)C(N)=O)[C@@H](C)CC)[C@@H](C)CC)[C@@H](C)CC [Compound C12-DK5] (Lauroyl-IKKILSKIKKLL-NH2) | – | 25 (≈ 15.6 µM) | 25 | 4.40 ± 0.19 | 50 (≈ 31.1 µM) | 50 (≈ 31.1 µM) | 25 (≈ 15.6 µM) | – | – | – | –
CCCCC(=O)N[C@H](C(=O)N[C@@H](CCCCN)C(=O)N[C@@H](CCCCN)C(=O)N[C@H](C(=O)N[C@@H](CC(C)C)C(=O)N[C@@H](CO)C(=O)N[C@@H](CCCCN)C(=O)N[C@H](C(=O)N[C@@H](CCCCN)C(=O)N[C@@H](CCCCN)C(=O)N[C@@H](CC(C)C)C(=O)N[C@@H](CC(C)C)C(N)=O)[C@@H](C)CC)[C@@H](C)CC)[C@@H](C)CC [Compound C5-DK5] (Pentanoyl-IKKILSKIKKLL-NH2) | 46.2 | 25 (≈ 16.6 µM) | 25 | – | 25 (≈ 16.6 µM) | 25 (≈ 16.6 µM) | 50 (≈ 33.2 µM) | either a lack of interactions or that the binding was too weak to be detectable by ITC | – | – | –
CC[C@H](C)[C@H](NC(=O)COCCOCCNC(=O)[C@H](Cc1c[nH]cn1)NC(=O)CCN)C(=O)N[C@@H](CCCCN)C(=O)N[C@@H](CCCCN)C(=O)N[C@H](C(=O)N[C@@H](CC(C)C)C(=O)N[C@@H](CO)C(=O)N[C@@H](CCCCN)C(=O)N[C@H](C(=O)N[C@@H](CCCCN)C(=O)N[C@@H](CCCCN)C(=O)N[C@@H](CC(C)C)C(=O)N[C@@H](CC(C)C)C(N)=O)[C@@H](C)CC)[C@@H](C)CC [CAR-PEG-DK5] (H-[βAla]H[AEEA]IKKILSKIKKLL-NH2; N-terminus and C-terminus assumed) | – | >200 | – | – | – | – | – | – | 100 (≈ 56.3 µM) | 100 (≈ 56.3 µM) | >200
CCCCCCCCCCCC(=O)NCCC(=O)N[C@@H](Cc1c[nH]cn1)C(=O)NCCOCCOCC(=O)N[C@H](C(=O)N[C@@H](CCCCN)C(=O)N[C@@H](CCCCN)C(=O)N[C@H](C(=O)N[C@@H](CC(C)C)C(=O)N[C@@H](CO)C(=O)N[C@@H](CCCCN)C(=O)N[C@H](C(=O)N[C@@H](CCCCN)C(=O)N[C@@H](CCCCN)C(=O)N[C@@H](CC(C)C)C(=O)N[C@@H](CC(C)C)C(N)=O)[C@@H](C)CC)[C@@H](C)CC)[C@@H](C)CC [C12-CAR-PEG-DK5] ({Lauroyl-βAla}-H[AEEA]IKKILSKIKKLL-NH2) | – | 12.5 (≈ 6.38 µM) | – | 5.38 ± 0.14 | 25 (≈ 12.8 µM) | 12.5 (≈ 6.38 µM) | 12.5 (≈ 6.38 µM) | – | – | – | –
